Assay results from US12180193B2, “Accelerating fibrosarcoma protein degrading compounds and associated methods of use” (Arvinas Operations, Inc., priority 2020, dated 2024).

What was measured:
BRAF V600E = target: T1, BRAF V600E (Homo sapiens, UniProt P15056, V600E); assay: Cellular assay of target protein degradation, T-Rex 293 cells stably transfected with HA-BRAF_V600E (HA immunofluorescence, high content imaging); assay type: cell-based; details: T-Rex 293 HA-BRAF V600E; for DC50: half maximal degradation, read-out: BRaf V600E DC50; for Dmax: maximum degradation observed
T1 construct: expressed in transfected cells
In short: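 Cells are plated with 1 ng/mL doxycycline and grown 24 h. Compound is then added (final 1 μM–0.1 nM, 0.1% DMSO) for another 24 h at 37 °C, followed by fixing, HA immunostaining and imaging to obtain DC50 and Dmax.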

BRAF G466V = target: T2, BRAF G466V (Homo sapiens, UniProt P15056, G466V); assay: Cellular assay of target protein degradation, T-Rex 293 cells stably transfected with HA-BRAF G466V (HA immunofluorescence, high content imaging); assay type: cell-based; details: T-Rex 293 HA-BRAF G466V; for DC50: half maximal degradation, read-out: BRaf G466V DC50; for Dmax: maximum degradation observed
T2 construct: expressed in transfected cells
In short: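 Read-out is HA immunofluorescence by high content imaging, with Hoechst and phalloidin co-staining, giving DC50 and Dmax as a percentage of control. Compound exposure lasts 24 hours at 37° C over 30 nM to 3 pM in 0.1% DMSO, with doxycycline-induced HA-BRAF G466V.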

T1 sequence (P15056 whole entry V600E): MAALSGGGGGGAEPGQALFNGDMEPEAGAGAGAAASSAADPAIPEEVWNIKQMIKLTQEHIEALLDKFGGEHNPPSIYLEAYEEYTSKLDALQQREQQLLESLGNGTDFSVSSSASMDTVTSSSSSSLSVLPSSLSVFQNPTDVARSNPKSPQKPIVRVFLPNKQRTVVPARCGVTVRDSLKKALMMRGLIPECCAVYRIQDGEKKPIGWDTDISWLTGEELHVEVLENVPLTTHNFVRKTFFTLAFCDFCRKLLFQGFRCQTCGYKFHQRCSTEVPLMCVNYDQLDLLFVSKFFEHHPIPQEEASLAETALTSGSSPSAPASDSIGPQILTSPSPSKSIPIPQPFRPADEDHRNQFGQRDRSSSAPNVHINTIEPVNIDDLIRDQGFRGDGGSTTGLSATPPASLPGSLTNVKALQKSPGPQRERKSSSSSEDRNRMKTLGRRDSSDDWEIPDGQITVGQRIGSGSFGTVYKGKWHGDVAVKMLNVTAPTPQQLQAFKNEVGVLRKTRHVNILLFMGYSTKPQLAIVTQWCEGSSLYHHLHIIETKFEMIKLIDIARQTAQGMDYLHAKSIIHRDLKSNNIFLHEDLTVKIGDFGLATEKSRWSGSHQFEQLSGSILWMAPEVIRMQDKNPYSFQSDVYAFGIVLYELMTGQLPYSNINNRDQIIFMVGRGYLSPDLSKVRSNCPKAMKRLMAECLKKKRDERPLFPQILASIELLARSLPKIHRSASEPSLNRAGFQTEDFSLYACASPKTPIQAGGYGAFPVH
T2 sequence (P15056 whole entry G466V): as the sequence (P15056 whole entry V600E) above, with G466V, E600V counted along it

Compound | DC50 (BRAF V600E) [nM] | Dmax (BRAF V600E) [%] | DC50 (BRAF G466V) [nM] | Dmax (BRAF G466V) [%]
O=C1CC[C@H](N2Cc3cc(CC[C@@H](O)CN4CC5(C4)CN(c4ccc(-c6cnc7[nH]cc(C(=O)c8c(F)ccc(NS(=O)(=O)N9CC[C@@H](F)C9)c8F)c7c6)cc4)C5)ccc3C2=O)C(=O)N1 [Compound 327, (3R)-N-{3-[5-(4-{6-[(2R)-4-{2-[(3)S-2,6-dioxopiperidin-3-yl]-1-oxo-2,3-dihydro-1H-isoindol-5-yl}-2-hydroxybutyl]-2,6-diazaspiro[3.3]heptan-2-yl}phenyl)-1H-pyrrolo[2,3-b]pyridine-3-carbonyl]-2,4-difluorophenyl}-3-fluoropyrrolidine-1-sulfonamide] | 5 to 50 | 35 to 70 | 1 to 10 | > 70
O=C1CC[C@@H](N2Cc3cc(CC[C@@H](O)CN4CC5(C4)CN(c4ccc(-c6cnc7[nH]cc(C(=O)c8c(F)ccc(NS(=O)(=O)N9CC[C@@H](F)C9)c8F)c7c6)cc4)C5)ccc3C2=O)C(=O)N1 [Compound 328, (3R)-N-{3-[5-(4-{6-[(2R)-4-{2-[(3R)-2,6-dioxopiperidin-3-yl]-1-oxo-2,3-dihydro-1H-isoindol-5-yl}-2-hydroxybutyl]-2,6-diazaspiro[3.3]heptan-2-yl}phenyl)-1H-pyrrolo[2,3-b]pyridine-3-carbonyl]-2,4-difluorophenyl}-3-fluoropyrrolidine-1-sulfonamide] | 5 to 50 | 35 to 70 | 1 to 10 | > 70
COc1cc(OCCCCN2CCN(c3ccc(-c4cnc5[nH]cc(C(=O)c6c(F)ccc(NS(=O)(=O)N7CC[C@@H](F)C7)c6F)c5c4)cc3)CC2)cc2c1C(=O)N(C1CCC(=O)NC1=O)C2 (stereo partly drawn) [Compound 331, (3R)-N-[3-(5-{4-[4-(4-{[2-(2,6-dioxopiperidin-3-yl)-7-methoxy-1-oxo-2,3-dihydro-1H-isoindol-5-yl]oxy}butyl)piperazin-1-yl]phenyl}-1H-pyrrolo[2,3-b]pyridine-3-carbonyl)-2,4-difluorophenyl]-3-fluoropyrrolidine-1-sulfonamide] | 5 to 50 | 35 to 70 | 1 to 10 | 35 to 70
O=C1CCC(N2Cc3cc(CCCCN4CCC(c5ccc(-c6cnc7[nH]cc(C(=O)c8c(F)ccc(NS(=O)(=O)N9CC[C@@H](F)C9)c8F)c7c6)cc5)CC4)ccc3C2=O)C(=O)N1 (stereo partly drawn) [Compound 332, (3R)-N-(3-{5-[4-(1-{4-[2-(2,6-dioxopiperidin-3-yl)-1-oxo-2,3-dihydro-1H-isoindol-5-yl]butyl}piperidin-4-yl)phenyl]-1H-pyrrolo[2,3-b]pyridine-3-carbonyl}-2,4-difluorophenyl)-3-fluoropyrrolidine-1-sulfonamide] | 5 to 50 | 35 to 70 | 1 to 10 | > 70
O=C1CCC(N2Cc3cc(N4CC(CN5CCC(C6(c7ncc(-c8cnc9[nH]cc(C(=O)c%10c(F)ccc(NS(=O)(=O)N%11CC[C@@H](F)C%11)c%10F)c9c8)cn7)CC6)CC5)C4)ccc3C2=O)C(=O)N1 (some centres unmarked) [Compound 334] | 50 to 500 | 35 to 70 | 1 to 10 | > 70
O=C1CC[C@H](N2Cc3cc(N4CC[C@@H](COc5ccc(-c6cnc7[nH]cc(C(=O)c8c(F)ccc(NS(=O)(=O)N9CC[C@@H](F)C9)c8F)c7c6)cc5)C4)ccc3C2=O)C(=O)N1 [Compound 335, (3R)-N-{3-[5-(4-{[(3R)-1-{2-[(3S)-2,6-dioxopiperidin-3-yl]-1-oxo-2,3-dihydro-1H-isoindol-5-yl}pyrrolidin-3-yl]methoxy}phenyl)-1H-pyrrolo[2,3-b]pyridine-3-carbonyl]-2,4-difluorophenyl}-3-fluoropyrrolidine-1-sulfonamide] | > 500 |  | > 30 | 
CCCS(=O)(=O)Nc1ccc(F)c(-n2cc(-c3cncnc3)c3nc(N(C)C4CCN(C(=O)CCOCCOCCOCCOCCNc5cccc6c5C(=O)N(C5CCC(=O)NC5=O)C6=O)CC4)ccc32)c1F (centres unmarked) [Compound 338] | 50 to 500 | 35 to 70 | 10 to 30 | 35 to 70

More lines, now with the values ahead:

DC50 (BRAF V600E) [nM] | Dmax (BRAF V600E) [%] | DC50 (BRAF G466V) [nM] | Dmax (BRAF G466V) [%] | Compound
5 to 50 | 35 to 70 | 1 to 10 | > 70 | O=C1CCC(N2Cc3cc(N4CCC(CN5CC[C@H]6[C@@H](C5)CN6c5ccc(-c6cnc7[nH]cc(C(=O)c8c(F)ccc(NS(=O)(=O)N9CC[C@@H](F)C9)c8F)c7c6)cc5)CC4)ccc3C2=O)C(=O)N1 (stereo partly drawn) [Compound 329, (3R)-N-[3-(5-{4-[(1S,6S)-3-({1-[2-(2,6-dioxopiperidin-3-yl)-1-oxo-2,3-dihydro-1H-isoindol-5-yl]piperidin-4-yl}methyl)-3,7-diazabicyclo[4.2.0]octan-7-yl]phenyl}-1H-pyrrolo[2,3-b]pyridine-3-carbonyl)-2,4-difluorophenyl]-3-fluoropyrrolidine-1-sulfonamide]
5 to 50 | 35 to 70 | 1 to 10 | > 70 | O=C1CCC(N2Cc3cc(N4CCC(CN5CC(C6CN(c7ccc(-c8cnc9[nH]cc(C(=O)c%10c(F)ccc(NS(=O)(=O)N%11CC[C@@H](F)C%11)c%10F)c9c8)cc7)C6)C5)CC4)ccc3C2=O)C(=O)N1 (stereo partly drawn) [Compound 330, (3R)-N-[3-(5-{4-[1′-({1-[2-(2,6-dioxopiperidin-3-yl)-1-oxo-2,3-dihydro-1H-isoindol-5-yl]piperidin-4-yl}methyl)-[3,3′-biazetidin]-1-yl]phenyl}-1H-pyrrolo[2,3-b]pyridine-3-carbonyl)-2,4-difluorophenyl]-3-fluoropyrrolidine-1-sulfonamide]
> 500 |  | 1 to 10 | < 35 | O=C1CCC(N2Cc3cc(N4CCN(CC5CCN(c6ccc(-c7cnc8[nH]cc(C(=O)c9c(F)ccc(NS(=O)(=O)N%10CC[C@@H](F)C%10)c9F)c8c7)cc6)CC5)CC(F)(F)C4)ccc3C2=O)C(=O)N1 (stereo partly drawn) [Compound 333, (3R)-N-[3-(5-{4-[4-({4-[2-(2,6-dioxopiperidin-3-yl)-1-oxo-2,3-dihydro-1H-isoindol-5-yl]-6,6-difluoro-1,4-diazepan-1-yl}methyl)piperidin-1-yl]phenyl}-1H-pyrrolo[2,3-b]pyridine-3-carbonyl)-2,4-difluorophenyl]-3-fluoropyrrolidine-1-sulfonamide]
> 500 | 35 to 70 | > 30 |  | O=C1CC[C@@H](N2Cc3cc(N4CC[C@@H](COc5ccc(-c6cnc7[nH]cc(C(=O)c8c(F)ccc(NS(=O)(=O)N9CC[C@@H](F)C9)c8F)c7c6)cc5)C4)ccc3C2=O)C(=O)N1 [Compound 336, (3R)-N-{3-[5-(4-{[(3R)-1-{2-[(3R)-2,6-dioxopiperidin-3-yl]-1-oxo-2,3-dihydro-1H-isoindol-5-yl}pyrrolidin-3-yl]methoxy}phenyl)-1H-pyrrolo[2,3-b]pyridine-3-carbonyl]-2,4-difluorophenyl}-3-fluoropyrrolidine-1-sulfonamide]
5 to 50 | 35 to 70 | 1 to 10 | > 70 | Cn1c(=O)n(C2CCC(=O)NC2=O)c2cccc(C3CCN(CC4CCN(c5ccc(-c6cnc7[nH]cc(C(=O)c8c(F)ccc(NS(=O)(=O)N9CC[C@@H](F)C9)c8F)c7c6)cc5)CC4)CC3)c21 (stereo partly drawn) [Compound 337, (3R)—N-(3-(5-(4-(4-((4-(1-(2,6-dioxopiperidin-3-yl)-3-methyl-2-oxo-2,3-dihydro-1H-benzo[d]imidazol-4-yl)piperidin-1-yl)methyl)piperidin-1-yl)phenyl)-1H-pyrrolo[2,3-b]pyridine-3-carbonyl)-2,4-difluorophenyl)-3-fluoropyrrolidine-1-sulfonamide]
5 to 50 | 35 to 70 | 1 to 10 | > 70 | O=C1CC[C@H](NC(=O)c2ccc(N3CCC(CN4CCN(c5ccc(-c6cnc7[nH]cc(C(=O)c8c(F)ccc(NS(=O)(=O)N9CC[C@@H](F)C9)c8F)c7c6)cc5)CC4)CC3)cc2F)C(=O)N1 [Compound 339, 4-(4-{[4-(4-{3-[2,6-difluoro-3-({[(3R)-3-fluoropyrrolidin-1-yl]sulfonyl}amino)benzoyl]-1H-pyrrolo[2,3-b]pyridin-5-yl}phenyl)piperazin-1-yl]methyl}piperidin-1-yl)-N-[(3S)-2,6-dioxopiperidin-3-yl]-2-fluoorobenzamide]
50 to 500 | < 35 | 1 to 10 | 35 to 70 | O=C1CC[C@@H](NC(=O)c2ccc(N3CCC(CN4CCN(c5ccc(-c6cnc7[nH]cc(C(=O)c8c(F)ccc(NS(=O)(=O)N9CC[C@@H](F)C9)c8F)c7c6)cc5)CC4)CC3)cc2F)C(=O)N1 [Compound 340]
5 to 50 | 35 to 70 | 1 to 10 | > 70 | O=C1CC[C@H](NC(=O)c2ccc(N3CCN(CC4CCN(c5ccc(-c6cnc7[nH]cc(C(=O)c8c(F)ccc(NS(=O)(=O)N9CC[C@@H](F)C9)c8F)c7c6)cc5)CC4)CC3)cc2F)C(=O)N1 [Compound 341, 4-(4-{[1-(4-{3-[2,6-difluoro-3-({[(3R)-3-fluoropyrrolidin-1-yl]sulfonyl}amino)benzoyl]-1H-pyrrolo[2,3-b]pyridin-5-yl}phenyl)piperidin-1-yl]methyl}piperazin-1-yl)-N-[(3S)-2,6-dioxopiperidin-3-yl]-2-fluorobenzamide]
